Columns and labels:
Format in all cases: in vivo, Glycine max
[1] = tested on: transgenic line 719 soybean; assay: Field trial of seed coatings under soil compaction / different soils, GA-deficient soybean; details: for Count (emergence) / Dwarfs (number of dwarfs not rescued) / Dwarfs (number not rescued): Line 719
[2] = tested on: wild-type soybean line A3237; assay: Experiment II second greenhouse test, seed imbibition, wild-type soybean; details: 0.25 mg/ml; seeds imbibed 6 hours
Protocol: (The compounds are tested in Experiment I at only one concentration, i.e., 0.25 mg/ml). Test tubes contained […] of ethanol solution per tube. Final volumes are made up to 30 ml with deionized water. After shaking, the treatment solutions (15 ml each) are transferred to each of two 50 ml test tubes. […] Twenty seeds are used in each treatment. Dry seed, ethanol/water-imbibed seed (1% ethanol in water, v/v), and water-imbibed seeds are included as controls. Seeds are imbibed for 6 hours in the test solutions, then planted in bread pans containing Metromix 350 (The Scotts Company, Marysville, Ohio), and covered with 0.5″ Metro-mix. Covered pans are transferred to the greenhouse and subirrigated. Illumination is at a light intensity of 300-400 μmolm^−2s^−1 photosynthetic photon flux; 16 hours light/8 hours dark. Subsequent waterings are also through sub-irrigation until the test is terminated three weeks later. Observations included the number of dwarf, intermediate, and tall plants; plant height; uniformity of rescue; and any visual effects. Digital photographs are also taken.

[3] = tested on: constitutively GA-deficient transgenic dwarf soybean line 719; assay: Field trial of seed coating application rates, GA-deficient soybean; details: seed coating
Protocol: GA3, GA3-3-acetate, GA5, GA9, and GA12 are evaluated in further field trials. […] The objectives of these tests are: 1) to determine if seed coatings, as compared to imbibition, of GA compounds facilitate rescue of constitutively GA-deficient transgenic dwarf soybeans (transgenic lines 719−2 plus 719+17) without causing elongation of wild-type soybeans (line A4922), and 2) to determine the seed treatment rate ranges for each of the selected GA compounds that would provide rescue of constitutively GA-deficient transgenic dwarf soybeans (transgenic lines 719−2 plus 719+17) without causing elongation of wild-type soybeans (line A4922).
Seeds are treated with GA3, GA5, GA9, GA12, and GA3-3-acetate at rates of 0, 0.1, 1, 10, and 100 μg/seed. These GA compounds are applied to the seeds using a Hege 11 seed treater (Hans-Ulrich Hege GmbH & Co., Waldenburg, Germany); 100% acetone is used as the carrier solvent. The amount of liquid introduced into the seed treater is six fluid ounces/100 lbs seed rate. In addition, GA12 is tested at 50 μg/seed. The untreated control (UTC) consisted of dry, untreated seeds. Seeds of constitutively GA-deficient transgenic dwarf soybean line 719 and wild-type A4922 are sown in both light and heavy soil. The planting depth is 0.5 to 1 inch (1.27 to 2.54 cm); watering is via drip irrigation. The experiment is carried out in three repetitions, using 25 seeds/plot (one five foot (152.4 cm) long row) for line 719, and 75 seeds/plot (two eight foot (243.8 cm) rows) for line A4922. Observations included total emergence, number of dwarfs not rescued, uniformity in plant height, average plant height, visual notes, and digital photos.
In all the experiments reported in Tables 17-24, treatments are replicated three times in a randomized block design. Data are analyzed using LSD (least significant difference) 0.05 probability using the PRM 5.0 Statistical Analysis Program (SAS Institute, North Carolina).

[4] = Heavy soil - Loose, target rate 0.5 μg/seed, Table 23
[5] = Heavy soil - Loose, target rate 4.0 μg/seed, Table 23
[6] = Heavy soil - Loose, target rate 8.0 μg/seed, Table 23
[7] = Heavy soil - Loose, target rate 16.0 μg/seed, Table 23
[8] = Heavy soil - compacted, target rate 0.5 μg/seed, Table 23
[9] = Heavy soil - compacted, target rate 4.0 μg/seed, Table 23
[10] = Heavy soil - compacted, target rate 8.0 μg/seed, Table 23
[11] = Heavy soil - compacted, target rate 16.0 μg/seed, Table 23
[12] = Heavy soil - loose, target rate 0.5 μg/seed, Table 22
[13] = Heavy soil - loose, target rate 2.0 μg/seed, Table 22
[14] = Light soil - Compacted, target rate 0.5 μg/seed, Table 22
[15] = Light soil - Compacted, target rate 2.0 μg/seed, Table 22
[16] = Light soil - Loose, target rate 0.5 μg/seed, Table 24
[17] = Light soil - Loose, target rate 2.0 μg/seed, Table 24
[18] = Light soil - Loose, target rate 4.0 μg/seed, Table 24
[19] = Light soil - compacted, target rate 0.5 μg/seed, Table 24
[20] = Light soil - compacted, target rate 2.0 μg/seed, Table 24
[21] = Light soil - compacted, target rate 4.0 μg/seed, Table 24

C=C1C[C@]23C[C@@]1(O)CC[C@H]2[C@@]12C=C[C@H](O)[C@@](C)(C(=O)O1)[C@H]2[C@@H]3C(=O)O [GA3, gibberellic acid]
% Emergence, Heavy Soil-Loose ([1]; 0.1 μg/seed): 78% | % Emergence, Light Soil-Compact ([1]; 0.1 μg/seed): 59% | % Rescue, Heavy Soil-Loose ([1]; 0.1 μg/seed): 80% | % Rescue, Light Soil-Compact ([1]; 0.1 μg/seed): 100% | % Emergence, Heavy Soil-Loose ([1]; 2.0 μg/seed): 66% | % Emergence, Light Soil-Compact ([1]; 2.0 μg/seed): 51% | % Rescue, Heavy Soil-Loose ([1]; 2.0 μg/seed): 93% | % Rescue, Light Soil-Compact ([1]; 2.0 μg/seed): 100% | Count (emergence) [1, 4]: 27.3 cd | Dwarfs (number of dwarfs not rescued) [1, 4]: 2.0 cde | Count (emergence) [1, 5]: 14.3 f | Dwarfs (number of dwarfs not rescued) [1, 5]: 0 e | Count (emergence) [1, 6]: 35.3 abc | Dwarfs (number of dwarfs not rescued) [1, 6]: 0.7 cde | Count (emergence) [1, 7]: 30.7 bcd | Dwarfs (number of dwarfs not rescued) [1, 7]: 0 e | Count (emergence) [1, 8]: 7.7 efg | Dwarfs (number of dwarfs not rescued) [1, 8]: 0.3 cd | Dwarfs (number of dwarfs not rescued) ([1]; Heavy soil - compacted, target rate 2.0 μg/seed, Table 23): 0 days | Count (emergence) [1, 9]: 3.3 fg | Dwarfs (number of dwarfs not rescued) [1, 9]: 0 days | Count (emergence) [1, 10]: 8.7 g·days | Dwarfs (number of dwarfs not rescued) [1, 10]: 0 days | Count (emergence) [1, 11]: 12.0 b-e | Dwarfs (number of dwarfs not rescued) [1, 11]: 0 days | Count (emergence) [1, 12]: 27 cd | Dwarfs (number of dwarfs not rescued) [1, 12]: 2.0 cde | Count (emergence) [1, 13]: 25 de | Dwarfs (number of dwarfs not rescued) [1, 13]: 0.7 cde | Count (emergence) [1, 14]: 22 efg | Dwarfs (number of dwarfs not rescued) [1, 14]: 0 days | Count (emergence) [1, 15]: 19 fg | Dwarfs (number of dwarfs not rescued) [1, 15]: 0 days | Count (emergence) [1, 16]: 45.0 ab | Dwarfs (number not rescued) [1, 16]: 0 e | Count (emergence) [1, 17]: 43.7 ab | Dwarfs (number not rescued) [1, 17]: 0 e | Count (emergence) [1, 18]: 39.3 b | Dwarfs (number not rescued) [1, 18]: 0 e | Count (emergence) [1, 19]: 1.2e+16 fg | Dwarfs (number not rescued) [1, 19]: 0 | Count (emergence) [1, 20]: 19.3 fg | Dwarfs (number not rescued) [1, 20]: 0 | Count (emergence) [1, 21]: 26.3 c-f | Dwarfs (number not rescued) [1, 21]: 0 | rank of potential for rescuing GA-deficient dwarf soybeans without decreasing emergence ([1]; based on the last two field trials): GA9>GA5>GA3-3-acetate>GA3>GA12 | best to least selectivity order ([1]; emergence under soil compaction, margin of selectivity, rescue without overelongation, Table 22): GA9>GA5>GA3-3-acetate>GA3 | Significant Visual Observations on Line A3237 [2]: Poor emergence | 719 Height, cm, Heavy soil ([3]; 0.1 μg compound per seed): 5.7 cd cm | 719 Height, cm, Light soil ([3]; 0.1 μg compound per seed): 5.7 ef cm | No. 719 Emerged, Heavy soil ([3]; 0.1 μg compound per seed): 19.7 a-d | No. 719 Emerged, Light soil ([3]; 0.1 μg compound per seed): 21.3 abc | No. 719 Not Rescued, Heavy soil ([3]; 0.1 μg compound per seed): 0 f | No. 719 Not Rescued, Light soil ([3]; 0.1 μg compound per seed): 1 | 719 Height, cm, Heavy soil ([3]; 1 μg compound per seed): 5.3 cde cm | 719 Height, cm, Light soil ([3]; 1 μg compound per seed): 5.7 ef cm | No. 719 Emerged, Heavy soil ([3]; 1 μg compound per seed): 17.3 b-e | No. 719 Emerged, Light soil ([3]; 1 μg compound per seed): 20.7 abc | No. 719 Not Rescued, Heavy soil ([3]; 1 μg compound per seed): 0.3 ef | No. 719 Not Rescued, Light soil ([3]; 1 μg compound per seed): 0 | 719 Height, cm, Heavy soil ([3]; 10 μg compound per seed): 10.3 a cm | 719 Height, cm, Light soil ([3]; 10 μg compound per seed): 11.7 bc cm | No. 719 Emerged, Heavy soil ([3]; 10 μg compound per seed): 18.3 a-e | No. 719 Emerged, Light soil ([3]; 10 μg compound per seed): 21.0 abc | No. 719 Not Rescued, Heavy soil ([3]; 10 μg compound per seed): 0 f | No. 719 Not Rescued, Light soil ([3]; 10 μg compound per seed): 0 | 719 Height, cm, Heavy soil ([3]; 100 μg compound per seed): 9.3 ab cm | 719 Height, cm, Light soil ([3]; 100 μg compound per seed): 13.7 a cm | No. 719 Emerged, Heavy soil ([3]; 100 μg compound per seed): 8.0 f | No. 719 Emerged, Light soil ([3]; 100 μg compound per seed): 16.7 cd | No. 719 Not Rescued, Heavy soil ([3]; 100 μg compound per seed): 0 f | No. 719 Not Rescued, Light soil ([3]; 100 μg compound per seed): 0

— patent US6723897B2, “Methods for controlling gibberellin levels” (Monsanto Technology, LLC, priority 1998, dated 2004)
